Literature values in patent publication US20040151761A1, “Methods and compositions utilizing astaxanthin” (priority 2003, published 2004).

How the values were obtained:
IgG = conditions: dogs, 20 mg; cited from earlier work
[1] = cited from earlier work
mouse splenocytes = conditions: cultured cell assay (Jyonouchi et al.); cited from earlier work
human neuroblastoma cell = conditions: cited from earlier work
[2] = system: chemical-induced carcinogenesis; conditions: mice; cited from earlier work
lymphocyte = conditions: rats; cited from earlier work
[3] = system: tumor necrosis factor (TNF); conditions: hamsters; cited from earlier work

| Compound | plasma IgG concentration versus un-supplemented animals (IgG) | conversion of beta-carotene to vitamin A ([1]; cats (Schweigert et al. 2002)) | absorption of beta-carotene ([1]; domestic cats (Chew et al. 2000)) | in vitro antibody response of mouse splenocytes to T-dependent antigens (mouse splenocytes) | human neuroblastoma cell proliferation (human neuroblastoma cell) | chemical-induced carcinogenesis [2] | lymphocyte proliferation (lymphocyte) | production of tumor necrosis factor (TNF) by macrophages [3] |
| --- | --- | --- | --- | --- | --- | --- | --- | --- |
| CC1=C[C@H](O)CC(C)(C)[C@H]1/C=C/C(C)=C/C=C/C(C)=C/C=C/C=C(C)/C=C/C=C(C)/C=C/C1=C(C)C[C@@H](O)CC1(C)C [lutein] | higher concentrations of plasma IgG than un-supplemented animals | – | – | – | – | – | – | – |
| CC1=C(/C=C/C(C)=C/C=C/C(C)=C/C=C/C=C(C)/C=C/C=C(C)/C=C/C2=C(C)CCCC2(C)C)C(C)(C)CCC1 [beta-carotene] | higher concentrations of plasma IgG than un-supplemented animals | not accompanied by conversion of beta-carotene to vitamin A | readily absorb beta-carotene | increase in vitro antibody response | inhibit human neuroblastoma cell proliferation | – | – | – |
| CC1=C(/C=C/C(C)=C/C=C/C(C)=C/C=C/C=C(C)/C=C/C=C(C)/C=C/C2=C(C)C(=O)CCC2(C)C)C(C)(C)CCC1=O [canthaxanthin] | – | – | – | – | – | prevent chemical-induced carcinogenesis | increases lymphocyte proliferation | enhances the production of tumor necrosis factor (TNF) |
